US6436441B1, “Hydrogel-forming sustained-release preparation” (Yamanouchi Pharmaceutical Co., Ltd., priority 1992, dated 2002)

Details: JP method, 25 ± 5° C.; the additive itself

## O=C(CO)[C@@H](O)[C@H](O)[C@H](O)CO [D-Fructose]
  Solubility (volume of water required for dissolving 1 gram): 1 mL
